{"source": "patent US20150313215A1", "about": "“PESTICIDAL MIXTURES” (priority 2010, published 2015)", "type_in_all_cases": "in vivo", "key": {"Phakopsora pachyrhizi": {"tested_on": "Phakopsora pachyrhizi", "experiment": "Greenhouse experiments, control of soybean rust on soybean, foliar spray", "settings": "Halo methylene benzonorbornene amide 1 gai/ha", "procedure": "Control of Phakopsora pachyrhizi on Soybean\nGreenhouse experiments were conducted to evaluate the ability of cis-jasmone to enhance fungicidal activity of a single agrochemical active ingredient and also of a mixture of two agrochemical active ingredients. A fungicidally active ingredient, N-[(1RS,4SR)-9-(Dichloromethylidene)-1,2,3,4-tetrahydro-1,4-methanonaphthalen-5-yl]-3-(difluoromethyl)-1-methyl-1H-pyrazole-4-carboxamide (“halo methylene benzonorbornene amide”), alone or in admixture with another fungicidally active ingredient, azoxystrobin, controls soybean rust when applied as a foliar spray. See data in Table 7."}, "[1]": {"tested_on": "Two Spotted Spider Mite Tetranychus urticae", "experiment": "Field trial, control of two spotted spider mite on kidney beans", "settings": "2 foliar sprays at 10 day intervals, 11 evaluation dates Day 3 to Day 35", "procedure": "Control of Two Spotted Spider Mite Tetranychus urticae on Kidney Beans\nA field trial using a plot size of 20 m^2, 3 replicates and 2 foliar sprays at 500 I/ha at 10 day intervals was assessed for average mite population/20 leaves/plot from 11 evaluation dates from Day 3 to Day 35 after treatment."}, "[2]": {"tested_on": "Currant-Lettuce Aphid Nasonova ribis-nigri", "experiment": "Field trial, control of currant-lettuce aphid on lettuce (Example 2)", "settings": "1 foliar spray; for Average Number of Aphids per Plant: apterous aphids", "procedure": "(§1) Control of Currant-Lettuce Aphid Nasonova ribis-nigri on Lettuce\nA field trial using plots of 20 plants, 3 replicates and 1 foliar spray was assessed for number of apterous aphids/plant and number of infected plants on Day 4, Day 8, Day 11 and Day 14 after treatment. Data for untreated control are an average of four control plots (each 3 replicates; 240 total plants) which were interspersed within the treated plots."}, "[3]": {"tested_on": "Currant-Lettuce Aphid Nasonova ribis-nigri", "experiment": "Field trial, control of currant-lettuce aphid on lettuce (Example 3)", "settings": "1 foliar spray, apterous aphids", "procedure": "as §1\nA field trial using plots of 20 plants, 4 replicates and 1 foliar spray was assessed for number of apterous aphids/plant on Day 3, Day 7 and Day 10 after treatment."}, "Thrips Thrips Tabaci": {"tested_on": "Thrips Thrips Tabaci", "experiment": "Field trial, control of thrips on cotton", "settings": "for Average Number of Thrips per Plant: 1 foliar spray, adult thrips; for average number of thrips per plant observed across all days monitored: Day 1 to Day 22", "procedure": "Control of Thrips Thrips Tabaci on Cotton\nA field trial using 21 m^2 plots, 3 replicates and 1 foliar spray was assessed for number of adult thrips/plant on Day 1, Day 3, Day 5, Day 8, Day 10, Day 15, and Day 22 after treatment. Data for untreated control are an average of four control plots."}, "Aphid Aphis gossypii [4]": {"tested_on": "Aphid Aphis gossypii", "experiment": "Field trial, control of aphid on cotton (Example 5)", "settings": "for Average Number of Aphids per Plant: 1 foliar spray, apterous adults; for average number of aphids per plant observed across all days monitored: Day 1 to Day 22", "procedure": "(§2) Control of Aphid Aphis gossypii on Cotton\nA field trial using 21 m^2 plots, 3 replicates and 1 foliar spray was assessed for number of apterous adults/plant on Day 1, Day 3, Day 5, Day 8, Day 10, Day 15, and Day 22 after treatment. Data for untreated control are an average of four control plots."}, "Aphid Aphis gossypii [5]": {"tested_on": "Aphid Aphis gossypii", "experiment": "Field trial, control of aphid on cotton (Example 6)", "settings": "1 foliar spray, 8 evaluation dates from Day 3 to Day 29", "procedure": "as §2\nA field trial using plots of 20 plants, 3 replicates and 1 foliar spray was assessed for number of alate and apterous aphids/plant from 8 evaluation dates from Day 3 to Day 29 after treatment. Data for untreated control are an average of four control plots (each 3 replicates; 240 total plants) which were interspersed within the treated plots."}, "[6]": {"settings": "Cis-jasmone 50 gai/hl, Day 4 after treatment"}, "[7]": {"settings": "Cis-jasmone 50 gai/hl, Day 8 after treatment"}, "[8]": {"settings": "Cis-jasmone 50 gai/hl, Day 11 after treatment"}, "[9]": {"settings": "Cis-jasmone 50 gai/hl, Day 14 after treatment"}, "[10]": {"settings": "Cis-jasmone 50 gai/hl, Day 1 after treatment"}, "[11]": {"settings": "Cis-jasmone 50 gai/hl, Day 3 after treatment"}, "[12]": {"settings": "Cis-jasmone 50 gai/hl, Day 5 after treatment"}, "[13]": {"settings": "Cis-jasmone 50 gai/hl, Day 10 after treatment"}, "[14]": {"settings": "Cis-jasmone 50 gai/hl, Day 15 after treatment"}, "[15]": {"settings": "Cis-jasmone 50 gai/hl, Day 22 after treatment"}, "[16]": {"settings": "Thiamethoxam 30 gai/hl, Day 4 after treatment"}, "[17]": {"settings": "Thiamethoxam 30 gai/hl, Day 8 after treatment"}, "[18]": {"settings": "Thiamethoxam 30 gai/hl, Day 11 after treatment"}, "[19]": {"settings": "Thiamethoxam 30 gai/hl, Day 14 after treatment"}, "[20]": {"settings": "Thiamethoxam 30 gai/hl, Day 1 after treatment"}, "[21]": {"settings": "Thiamethoxam 30 gai/hl, Day 3 after treatment"}, "[22]": {"settings": "Thiamethoxam 30 gai/hl, Day 5 after treatment"}, "[23]": {"settings": "Thiamethoxam 30 gai/hl, Day 10 after treatment"}, "[24]": {"settings": "Thiamethoxam 30 gai/hl, Day 15 after treatment"}, "[25]": {"settings": "Thiamethoxam 30 gai/hl, Day 22 after treatment"}}, "data": [{"compound": "Cn1cc(C(=O)Nc2cccc3c2[C@@H]2CC[C@H]3C2=C(Cl)Cl)c(C(F)F)n1", "note": "(racemic) [Halo methylene benzonorbornene amide, N-[(1RS,4SR)-9-(Dichloromethylidene)-1,2,3,4-tetrahydro-1,4-methanonaphthalen-5-yl]-3-(difluoromethyl)-1-methyl-1H-pyrazole-4-carboxamide]", "values": [{"measurement": "Percentage Fungicidal Activity", "setting": "Phakopsora pachyrhizi", "result": 20, "unit": "%"}]}, {"compound": "CC/C=C\\CC1=C(C)CCC1=O", "note": "[Cis-jasmone, cis-jasmone]", "values": [{"measurement": "% pest control versus untreated check", "setting": "[1]; Cis-jasmone 5 gai/hl, mite population/20 leaves/plot", "result": 51.00, "unit": "%"}, {"measurement": "Number of Infested Plants (out of 60)", "setting": "[2]; [6]", "result": 21}, {"measurement": "Average Number of Aphids per Plant", "setting": "[2]; [6]", "result": 0.57}, {"measurement": "Number of Infested Plants (out of 60)", "setting": "[2]; [7]", "result": 48}, {"measurement": "Average Number of Aphids per Plant", "setting": "[2]; [7]", "result": 3.28}, {"measurement": "Number of Infested Plants (out of 60)", "setting": "[2]; [8]", "result": 59}, {"measurement": "Average Number of Aphids per Plant", "setting": "[2]; [8]", "result": 8.02}, {"measurement": "Number of Infested Plants (out of 60)", "setting": "[2]; [9]", "result": 60}, {"measurement": "Average Number of Aphids per Plant", "setting": "[2]; [9]", "result": 19.25}, {"measurement": "Average Number of Aphids per Plant", "setting": "[3]; Cis-jasmone at 100 gai/hl, Day 3 after treatment", "result": 2.963}, {"measurement": "Average Number of Aphids per Plant", "setting": "[3]; Cis-jasmone at 100 gai/hl, Day 7 after treatment", "result": 6.563}, {"measurement": "Average Number of Aphids per Plant", "setting": "[3]; Cis-jasmone at 100 gai/hl, Day 10 after treatment", "result": 12.375}, {"measurement": "Average Number of Thrips per Plant", "setting": "Thrips Thrips Tabaci; [10]", "result": 24}, {"measurement": "average number of thrips per plant observed across all days monitored", "setting": "Thrips Thrips Tabaci; Cis-jasmone 50 gai/hl", "result": 39}, {"measurement": "Average Number of Thrips per Plant", "setting": "Thrips Thrips Tabaci; [11]", "result": 19}, {"measurement": "Average Number of Thrips per Plant", "setting": "Thrips Thrips Tabaci; [12]", "result": 28}, {"measurement": "Average Number of Thrips per Plant", "setting": "Thrips Thrips Tabaci; [7]", "result": 48}, {"measurement": "Average Number of Thrips per Plant", "setting": "Thrips Thrips Tabaci; [13]", "result": 58}, {"measurement": "Average Number of Thrips per Plant", "setting": "Thrips Thrips Tabaci; [14]", "result": 65}, {"measurement": "Average Number of Thrips per Plant", "setting": "Thrips Thrips Tabaci; [15]", "result": 32}, {"measurement": "Average Number of Aphids per Plant", "setting": "Aphid Aphis gossypii [4]; [10]", "result": 40}, {"measurement": "average number of aphids per plant observed across all days monitored", "setting": "Aphid Aphis gossypii [4]; Cis-jasmone 50 gai/hl", "result": 61}, {"measurement": "Average Number of Aphids per Plant", "setting": "Aphid Aphis gossypii [4]; [11]", "result": 33}, {"measurement": "Average Number of Aphids per Plant", "setting": "Aphid Aphis gossypii [4]; [12]", "result": 45}, {"measurement": "Average Number of Aphids per Plant", "setting": "Aphid Aphis gossypii [4]; [7]", "result": 126}, {"measurement": "Average Number of Aphids per Plant", "setting": "Aphid Aphis gossypii [4]; [13]", "result": 139}, {"measurement": "Average Number of Aphids per Plant", "setting": "Aphid Aphis gossypii [4]; [14]", "result": 27}, {"measurement": "Average Number of Aphids per Plant", "setting": "Aphid Aphis gossypii [4]; [15]", "result": 14}, {"measurement": "Average Number of Aphids/Plant, Alate", "setting": "Aphid Aphis gossypii [5]; Cis-Jasmone 50 gai/hl", "result": 18}, {"measurement": "Average Number of Aphids/Plant, Apterous", "setting": "Aphid Aphis gossypii [5]; Cis-Jasmone 50 gai/hl", "result": 260}]}, {"compound": "CNC(=O)c1cc(C#N)cc(C)c1NC(=O)c1cc(Br)nn1-c1ncccc1Cl", "note": "[Cyantraniliprole, cyantraniliprole]", "values": [{"measurement": "Average Number of Aphids/Plant, Alate", "setting": "Aphid Aphis gossypii [5]; Cyantraniliprole 100 gai/hl", "result": 17}, {"measurement": "Average Number of Aphids/Plant, Apterous", "setting": "Aphid Aphis gossypii [5]; Cyantraniliprole 100 gai/hl", "result": 235}, {"measurement": "Average Number of Aphids/Plant, Alate", "setting": "Aphid Aphis gossypii [5]; Cyantraniliprole 200 gai/hl", "result": 16}, {"measurement": "Average Number of Aphids/Plant, Apterous", "setting": "Aphid Aphis gossypii [5]; Cyantraniliprole 200 gai/hl", "result": 179}]}, {"compound": "CN1COCN(Cc2cnc(Cl)s2)/C1=N\\[N+](=O)[O-]", "note": "[Thiamethoxam, thiamethoxam]", "values": [{"measurement": "Number of Infested Plants (out of 60)", "setting": "[2]; [16]", "result": 1}, {"measurement": "Average Number of Aphids per Plant", "setting": "[2]; [16]", "result": 0.05}, {"measurement": "Number of Infested Plants (out of 60)", "setting": "[2]; [17]", "result": 3}, {"measurement": "Average Number of Aphids per Plant", "setting": "[2]; [17]", "result": 0.12}, {"measurement": "Number of Infested Plants (out of 60)", "setting": "[2]; [18]", "result": 15}, {"measurement": "Average Number of Aphids per Plant", "setting": "[2]; [18]", "result": 1}, {"measurement": "Number of Infested Plants (out of 60)", "setting": "[2]; [19]", "result": 22}, {"measurement": "Average Number of Aphids per Plant", "setting": "[2]; [19]", "result": 2.25}, {"measurement": "Average Number of Aphids per Plant", "setting": "[3]; Thiamethoxam at 25 gai/hl, Day 3 after treatment", "result": 0.063}, {"measurement": "Average Number of Aphids per Plant", "setting": "[3]; Thiamethoxam at 25 gai/hl, Day 7 after treatment", "result": 0.788}, {"measurement": "Average Number of Aphids per Plant", "setting": "[3]; Thiamethoxam at 25 gai/hl, Day 10 after treatment", "result": 4.813}, {"measurement": "Average Number of Thrips per Plant", "setting": "Thrips Thrips Tabaci; [20]", "result": 31}, {"measurement": "average number of thrips per plant observed across all days monitored", "setting": "Thrips Thrips Tabaci; Thiamethoxam 30 gai/hl", "result": 28}, {"measurement": "Average Number of Thrips per Plant", "setting": "Thrips Thrips Tabaci; [21]", "result": 17}, {"measurement": "Average Number of Thrips per Plant", "setting": "Thrips Thrips Tabaci; [22]", "result": 27}, {"measurement": "Average Number of Thrips per Plant", "setting": "Thrips Thrips Tabaci; [17]", "result": 15}, {"measurement": "Average Number of Thrips per Plant", "setting": "Thrips Thrips Tabaci; [23]", "result": 27}, {"measurement": "Average Number of Thrips per Plant", "setting": "Thrips Thrips Tabaci; [24]", "result": 52}, {"measurement": "Average Number of Thrips per Plant", "setting": "Thrips Thrips Tabaci; [25]", "result": 29}, {"measurement": "Average Number of Aphids per Plant", "setting": "Aphid Aphis gossypii [4]; [20]", "result": 41}, {"measurement": "average number of aphids per plant observed across all days monitored", "setting": "Aphid Aphis gossypii [4]; Thiamethoxam 30 gai/hl", "result": 25}, {"measurement": "Average Number of Aphids per Plant", "setting": "Aphid Aphis gossypii [4]; [21]", "result": 20}, {"measurement": "Average Number of Aphids per Plant", "setting": "Aphid Aphis gossypii [4]; [22]", "result": 23}, {"measurement": "Average Number of Aphids per Plant", "setting": "Aphid Aphis gossypii [4]; [17]", "result": 26}, {"measurement": "Average Number of Aphids per Plant", "setting": "Aphid Aphis gossypii [4]; [23]", "result": 33}, {"measurement": "Average Number of Aphids per Plant", "setting": "Aphid Aphis gossypii [4]; [24]", "result": 20}, {"measurement": "Average Number of Aphids per Plant", "setting": "Aphid Aphis gossypii [4]; [25]", "result": 10}]}, {"compound": "abamectin", "values": [{"measurement": "% pest control versus untreated check", "setting": "[1]; Abamectin 0.45 gai/hl", "result": 41.22, "unit": "%"}, {"measurement": "% pest control versus untreated check", "setting": "[1]; Abamectin 0.9 g active ingredient/hl", "result": 56.56, "unit": "%"}]}]}
